The results in this text go back to EP2768830B1, “APOPTOSIS-INDUCING AGENTS FOR THE TREATMENT OF CANCER AND IMMUNE AND AUTOIMMUNE DISEASES” (AbbVie Inc., priority 2011, dated 2013).

In test [1] the test system is mouse FL5.12 cells transfected with Bcl-XL. Kind of test: FL5.12 cellular assay (cell viability, CellTiter-Glo).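 Further: each EC50 determination derived from duplicate measurements.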 Type of test: cell-based. The settings on record: FL5.12 cells transfected with Bcl-XL, IL-3-depleted, 3% FBS assay media, 24 hours, CellTiter-Glo, read-out: FL5.12 Bcl-xL, - IL3, EC 50. (ATP-based viability assays read luminescence as a measure of living cells.)
Procedure: For assaying the compound activity, the cells were exchanged into an IL-3-depleted deprivation media, which was identical to the growth media except for the absence of FBS and WEHI-3B conditional media, for 2 days. Then the cells were exchanged to 3% FBS assay media (RPMI with 2 mM glutamine, 1% 100 mM sodium pyruvate, 2% 1 M HEPES, 4 µL/L of β-mercaptoethanol, 1% penicillin-streptomycin, 3% FBS). Compounds in series dilutions were added, and the cells were cultured for 24 hours. Compounds in series dilutions were added, and the cells were cultured for 24 hours. Cell viability was assayed using the CellTiter-Glo assay (Promega Corp., Madison, WI) according to the manufacturer instructions. Individual determinations were the result of duplicate values.

The target of test [2] is GST-Bcl-xL (Homo sapiens, UniProt Q07817). The settings on record: read-out: TR-FRET binding Bcl-xL Ki.
Sequence of GST-Bcl-xL (Q07817 whole entry): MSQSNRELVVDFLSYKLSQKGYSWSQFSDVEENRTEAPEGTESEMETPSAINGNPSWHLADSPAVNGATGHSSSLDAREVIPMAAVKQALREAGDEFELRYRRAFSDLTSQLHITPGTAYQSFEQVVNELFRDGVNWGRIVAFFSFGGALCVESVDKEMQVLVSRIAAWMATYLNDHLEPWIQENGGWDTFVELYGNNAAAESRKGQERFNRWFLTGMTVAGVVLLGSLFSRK

Read-outs that look alike come from different tables or passages of the source.

`O=C(Nc1nc2ccccc2s1)c1cccc2c1CN(c1ccc(-c3cnn(CC4CCCOC4)c3)c(C(=O)O)n1)CC2` (centres unmarked) [Example 56, 6-[8-(1,3-benzothiazol-2-ylcarbamoyl)-3,4-dihydroisoquinolin-2(1H)-yl]-3-[1-(tetrahydro-2H-pyran-3-ylmethyl)-1H-pyrazol-4-yl]pyridine-2-carboxylic acid]: the EC50 in test [1] (Mus musculus) came to 583 nM. For the same molecule, in test [2], the Ki came to 24 nM.
For `O=C(Nc1nc2ccccc2s1)c1cccc2c1CN(c1ccc(-c3cnn(Cc4ccccc4[N+](=O)[O-])c3)c(C(=O)O)n1)CC2` [Example 57, 6-[8-(1,3-benzothiazol-2-ylcarbamoyl)-3,4-dihydroisoquinolin-2(1H)-yl]-3-[1-(2-nitrobenzyl)-1H-pyrazol-4-yl]pyridine-2-carboxylic acid], in that order: 741 nM and 14 nM.
Consider `O=C(Nc1nc2ccccc2s1)c1cccc2c1CN(c1ccc(-c3cnn(Cc4cccc(-c5ccccc5)c4)c3)c(C(=O)O)n1)CC2` [Example 58, 6-[8-(1,3-benzothiazol-2-ylcarbamoyl)-3,4-dihydroisoquinolin-2(1H)-yl]-3-[1-(biphenyl-3-ylmethyl)-1H-pyrazol-4-yl]pyridine-2-carboxylic acid], for which, in test [1] (Mus musculus), the EC50 was more than 1000 nM. Moreover, the Ki in test [2] was 174 nM.
Regarding `CC(C)(C)Cn1cc(-c2ccc(N3CCc4cccc(C(=O)Nc5nc6ccccc6s5)c4C3)nc2C(=O)O)cn1` [Example 59, 6-[8-(1,3-benzothiazol-2-ylcarbamoyl)-3,4-dihydroisoquinolin-2(1H)-yl]-3-[1-(2,2-dimethylpropyl)-1H-pyrazol-4-yl]pyridine-2-carboxylic acid], in test [1], the EC50 was more than 1000 nM. Besides, the Ki in test [2] was 424 nM.
In the case of `O=C(Nc1nc2ccccc2s1)c1cccc2c1CN(c1ccc(-c3cnn(CCC4CCCCC4)c3)c(C(=O)O)n1)CC2` [Example 60, 6-[8-(1,3-benzothiazol-2-ylcarbamoyl)-3,4-dihydroisoquinolin-2(1H)-yl]-3-[1-(2-cyclohexylethyl)-1H-pyrazol-4-yl]pyridine-2-carboxylic acid], in test [1] (Mus musculus), the EC50 was determined as 219 nM. Besides, in test [2], the Ki amounted to 5 nM.
For the molecule `O=C(Nc1nc2ccccc2s1)c1cccc2c1CN(c1ccc(-c3cnn(Cc4cccc(C(F)(F)F)c4)c3)c(C(=O)O)n1)CC2` [Example 61, 6-[8-(1,3-benzothiazol-2-ylcarbamoyl)-3,4-dihydroisoquinolin-2(1H)-yl]-3-{1-[3-(trifluoromethyl)benzyl]-1H-pyrazol-4-yl}pyridine-2-carboxylic acid], the EC50 in test [1] (Mus musculus) was found to be 380 nM. Further, the Ki in test [2] worked out at 11 nM.
For `O=C(Nc1nc2ccccc2s1)c1cccc2c1CN(c1ccc(-c3cnn(Cc4ccccc4-c4ccccc4)c3)c(C(=O)O)n1)CC2` [Example 62, 6-[8-(1,3-benzothiazol-2-ylcarbamoyl)-3,4-dihydroisoquinolin-2(1H)-yl]-3-[1-(biphenyl-2-ylmethyl)-1H-pyrazol-4-yl]pyridine-2-carboxylic acid], in that order: more than 1000 nM and 61 nM.
As for `Cc1c(-c2ccc(N3CCc4cccc(C(=O)Nc5nc6ccccc6s5)c4C3)nc2C(=O)O)cnn1CC1CCCC1` [Example 63, 6-[8-(1,3-benzothiazol-2-ylcarbamoyl)-3,4-dihydroisoquinolin-2(1H)-yl]-3-[1-(cyclopentylmethyl)-5-methyl-1H-pyrazol-4-yl]pyridine-2-carboxylic acid], in test [1] (Mus musculus), the EC50 came to 27 nM. In test [2], the Ki stood at 2 nM.
Turning to `O=Cc1cccc(Cn2cc(-c3ccc(N4CCc5cccc(C(=O)Nc6nc7ccccc7s6)c5C4)nc3C(=O)O)cn2)c1` [Example 64, 6-[8-(1,3-benzothiazol-2-ylcarbamoyl)-3,4-dihydroisoquinolin-2(1H)-yl]-3-[1-(3-formylbenzyl)-1H-pyrazol-4-yl]pyridine-2-carboxylic acid], in test [1] (Mus musculus), the EC50 is more than 1000 nM. Besides, the Ki in test [2] stood at 61 nM.
Taken in the same sequence, the figures for `O=C(Nc1nc2ccccc2s1)c1cccc2c1CN(c1ccc(-c3cnn(Cc4ccccc4)c3-c3ccccc3)c(C(=O)O)n1)CC2` [Example 65, 6-[8-(1,3-benzothiazol-2-ylcarbamoyl)-3,4-dihydroisoquinolin-2(1H)-yl]-3-(1-benzyl-5-phenyl-1H-pyrazol-4-yl)pyridine-2-carboxylic acid] were more than 1000 nM and 393 nM.
For the molecule `Cc1c(-c2ccc(N3CCc4cccc(C(=O)Nc5nc6ccccc6s5)c4C3)nc2C(=O)O)cnn1CC1CCCOC1` (centres unmarked) [Example 66, 6-[8-(1,3-benzothiazol-2-ylcarbamoyl)-3,4-dihydroisoquinolin-2(1H)-yl]-3-[5-methyl-1-(tetrahydro-2H-pyran-3-ylmethyl)-1H-pyrazol-4-yl]pyridine-2-carboxylic acid], the EC50 in test [1] (Mus musculus) was 60 nM. Besides, in test [2], the Ki amounted to 3 nM.
For `O=C(Nc1nc2ccccc2s1)c1cccc2c1CN(c1ccc(-c3cnn(CC4(c5ccccc5)CCCCC4)c3)c(C(=O)O)n1)CC2` [Example 67, 6-[8-(1,3-benzothiazol-2-ylcarbamoyl)-3,4-dihydroisoquinolin-2(1H)-yl]-3-{1-[(1-phenylcyclohexyl)methyl]-1H-pyrazol-4-yl}pyridine-2-carboxylic acid], in that order: 106 nM and 7 nM.
On to `CN(C)Cc1cccc(Cn2cc(-c3ccc(N4CCc5cccc(C(=O)Nc6nc7ccccc7s6)c5C4)nc3C(=O)O)cn2)c1` [Example 68, 6-[8-(1,3-benzothiazol-2-ylcarbamoyl)-3,4-dihydroisoquinolin-2(1H)-yl]-3-(1-{3-[(dimethylamino)methyl]benzyl}-1H-pyrazol-4-yl)pyridine-2-carboxylic acid], for which the EC50 in test [1] (Mus musculus) was more than 1000 nM. In test [2], the Ki was found to be 279 nM.
Taken in the same sequence, the figures for `CS(=O)(=O)c1cccc(Cn2cc(-c3ccc(N4CCc5cccc(C(=O)Nc6nc7ccccc7s6)c5C4)nc3C(=O)O)cn2)c1` [Example 69, 6-[8-(1,3-benzothiazol-2-ylcarbamoyl)-3,4-dihydroisoquinolin-2(1H)-yl]-3-{1-[3-(methylsulfonyl)benzyl]-1H-pyrazol-4-yl}pyridine-2-carboxylic acid] were more than 1000 nM and 91 nM.
For `O=C(Nc1nc2ccccc2s1)c1cccc2c1CN(c1ccc(-c3cnn(CC4CCCCC4)c3C3CC3)c(C(=O)O)n1)CC2` [Example 70, 6-[8-(1,3-benzothiazol-2-ylcarbamoyl)-3,4-dihydroisoquinolin-2(1H)-yl]-3-[1-(cyclohexylmethyl)-5-cyclopropyl-1H-pyrazol-4-yl]pyridine-2-carboxylic acid], in that order: 58 nM and 5 nM.
For `O=C(Nc1nc2ccccc2s1)c1cccc2c1CN(c1ccc(-c3cnn(Cc4ccccc4S(=O)(=O)N4CCOCC4)c3)c(C(=O)O)n1)CC2` [Example 72, 6-[8-(1,3-benzothiazol-2-ylcarbamoyl)-3,4-dihydroisoquinolin-2(1H)-yl]-3-{1-[2-(morpholin-4-ylsulfonyl)benzyl]-1H-pyrazol-4-yl}pyridine-2-carboxylic acid], the EC50 in test [1] (Mus musculus) was more than 1000 nM. For the same molecule, the Ki in test [2] is 28 nM.
Regarding `Cc1c(-c2ccc(N3CCc4cccc(C(=O)Nc5nc6ccccc6s5)c4C3)nc2C(=O)O)cnn1CC1CCC(F)(F)CC1` [Example 73, 6-[8-(1,3-benzothiazol-2-ylcarbamoyl)-3,4-dihydroisoquinolin-2(1H)-yl]-3-{1-[(4,4-difluorocyclohexyl)methyl]-5-methyl-1H-pyrazol-4-yl}pyridine-2-carboxylic acid], in test [1] (Mus musculus), the EC50 was determined as 8 nM. Moreover, the Ki in test [2] was found to be 0.9 nM.
Taken in the same sequence, the figures for `O=C(Nc1nc2ccccc2s1)c1cccc2c1CN(c1ccc(-c3cnn(CC4(C(F)(F)F)CCCCC4)c3)c(C(=O)O)n1)CC2` [Example 74, 6-[8-(1,3-benzothiazol-2-ylcarbamoyl)-3,4-dihydroisoquinolin-2(1H)-yl]-3-(1-{[1-(trifluoromethyl)cyclohexyl]methyl}-1H-pyrazol-4-yl)pyridine-2-carboxylic acid] were 335 nM and 6 nM.
For `O=C(Nc1nc2ccccc2s1)c1cccc2c1CN(c1ccc(-c3cnn(C(c4ccccc4)c4ccccc4)c3)c(C(=O)O)n1)CC2` [Example 75, 6-[8-(1,3-benzothiazol-2-ylcarbamoyl)-3,4-dihydroisoquinolin-2(1H)-yl]-3-[1-(diphenylmethyl)-1H-pyrazol-4-yl]pyridine-2-carboxylic acid], in that order: 919 nM and 28 nM.
Taken in the same sequence, the figures for `O=C(Nc1nc2ccccc2s1)c1cccc2c1CN(c1ccc(-c3cnn(Cc4ccccc4N4CCOCC4)c3)c(C(=O)O)n1)CC2` [Example 76, 6-[8-(1,3-benzothiazol-2-ylcarbamoyl)-3,4-dihydroisoquinolin-2(1H)-yl]-3-{1-[2-(morpholin-4-yl)benzyl]-1H-pyrazol-4-yl}pyridine-2-carboxylic acid] were more than 1000 nM and 29 nM.
As for `O=C(Nc1nc2ccccc2s1)c1cccc2c1CN(c1ccc(-c3cnn(C(CCN4CCOCC4)c4ccccc4)c3)c(C(=O)O)n1)CC2` (centres unmarked) [Example 77, 6-[8-(1,3-benzothiazol-2-ylcarbamoyl)-3,4-dihydroisoquinolin-2(1H)-yl]-3-{1-[3-(morpholin-4-yl)-1-phenylpropyl]-1H-pyrazol-4-yl}pyridine-2-carboxylic acid], in test [1] (Mus musculus), the EC50 was 431 nM. Moreover, the Ki in test [2] worked out at 10 nM.
For `CC(C)(C)OC(=O)N1CCC(Cn2cc(-c3ccc(N4CCc5cccc(C(=O)Nc6nc7ccccc7s6)c5C4)nc3C(=O)O)cn2)CC1` [Example 78, 6-[8-(1,3-benzothiazol-2-ylcarbamoyl)-3,4-dihydroisoquinolin-2(1H)-yl]-3-(1-{[1-(tert-butoxycarbonyl)piperidin-4-yl]methyl}-1H-pyrazol-4-yl)pyridine-2-carboxylic acid], in that order: more than 1000 nM and 379 nM.

The Ki is the equilibrium dissociation constant of an inhibitor or competing ligand from its target.
